According to US20260209193A1, “NOVEL INHIBITORS OF DNA DAMAGE RESPONSES FOR CANCER THERAPY” (The Regents of the University of California, priority 2022, published 2026):
Values belong to the molecule of their own block, whether it stands above or below them.

Target: T1, PARP1 (Homo sapiens, UniProt P09874)
T1 construct: endogenous in cells; host or cells: PC3
Test: PARP1 trapping, chromatin fractionation (chromatin-bound fraction)
Type: cell-based
Conditions: PC3 cells
Text: The trapped PARP1 forms a toxic lesion and stalls the progress of replication forks. The replication fork collapses in BRCA1/2-deficient cancer cells, and then results in cell death. […] Six cancer cell lines were used in this assay, including two breast cancer cell lines, BRCA1-mutunt SUM149PT-BRCA1mut and SUM149PT-BRCA1rev where deleterious BRCA1 mutation is reverted to form a functional BRCA1, two ovarian cancer cell lines, BRCA1-null UWB1.289 and UWB1.289+BRCA1, a stable cell line in which wild-type BRCA1 function has been restored, and two prostate cancer cell lines, enzalutamide resistant C4-2B/MR which is homologous recombination (HR)-deficient due to Rad51 mutation, and enzalutamide insensitive PC3 which is HR-proficient.

T1 sequence (P09874 whole entry, species assumed): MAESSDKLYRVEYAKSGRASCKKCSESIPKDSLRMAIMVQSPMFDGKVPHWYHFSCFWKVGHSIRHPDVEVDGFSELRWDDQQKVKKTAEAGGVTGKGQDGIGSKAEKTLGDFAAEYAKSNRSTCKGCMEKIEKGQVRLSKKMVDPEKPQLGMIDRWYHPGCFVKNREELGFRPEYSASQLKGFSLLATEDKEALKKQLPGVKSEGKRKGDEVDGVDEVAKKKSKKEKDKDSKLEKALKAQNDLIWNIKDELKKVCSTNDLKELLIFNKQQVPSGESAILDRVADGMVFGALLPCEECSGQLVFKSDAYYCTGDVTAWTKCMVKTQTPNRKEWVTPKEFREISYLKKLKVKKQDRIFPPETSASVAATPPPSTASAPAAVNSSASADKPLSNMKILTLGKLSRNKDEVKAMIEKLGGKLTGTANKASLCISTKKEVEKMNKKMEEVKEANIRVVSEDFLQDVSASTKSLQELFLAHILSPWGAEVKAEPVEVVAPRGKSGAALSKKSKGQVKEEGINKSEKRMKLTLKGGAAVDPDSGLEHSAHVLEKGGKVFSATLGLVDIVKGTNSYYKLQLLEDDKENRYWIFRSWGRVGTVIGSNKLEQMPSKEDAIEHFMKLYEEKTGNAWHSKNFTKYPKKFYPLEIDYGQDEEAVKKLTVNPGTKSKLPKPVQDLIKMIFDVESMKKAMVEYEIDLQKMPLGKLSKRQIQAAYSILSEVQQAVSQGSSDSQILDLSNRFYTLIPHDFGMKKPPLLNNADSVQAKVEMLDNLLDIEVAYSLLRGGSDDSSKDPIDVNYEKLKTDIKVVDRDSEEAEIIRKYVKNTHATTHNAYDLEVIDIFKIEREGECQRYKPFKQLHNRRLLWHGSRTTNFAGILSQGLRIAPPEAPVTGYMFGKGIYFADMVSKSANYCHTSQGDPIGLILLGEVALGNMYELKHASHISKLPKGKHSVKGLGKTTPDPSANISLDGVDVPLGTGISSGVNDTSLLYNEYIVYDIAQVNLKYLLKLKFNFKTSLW

PARP1-trapping potency relative to JC099 (PARP1 in the chromatin-bound fraction): their potencies were less than JC099
Molecule: 3-amino-N-(3,5-bis((E)-3,4-difluorobenzylidene)-4-oxocyclohexyl)-5-(4-(isopropylsulfonyl)phenyl)pyrazine-2-carboxamide [JCS089]

PARP1 trapped on DNA lesions (0.5 μM and 2 μM): trapped
Molecule: CCOCCOc1ccc(C(=O)NC2C/C(=C\c3ccc(F)c(F)c3)C(=O)/C(=C/c3ccc(F)c(F)c3)C2)cc1 (stereo not drawn) [JCS010, N-(3,5-Bis((E)-3,4-difluorobenzylidene)-4-oxocyclohexyl)-4-(2-ethoxyethoxy)benzamide]

PARP1 trapped on DNA lesions (0.5 μM and 2 μM): trapped
PARP1-trapping potency relative to JC099 (PARP1 in the chromatin-bound fraction): higher potency in PARP1-trapping
Molecule: CCCN(CCC)CCOc1ccc(C(=O)NC2C/C(=C\c3ccc(F)c(F)c3)C(=O)/C(=C/c3ccc(F)c(F)c3)C2)cc1 (stereo not drawn) [JCS011, N-(3,5-Bis((E)-3,4-difluorobenzylidene)-4-oxocyclohexyl)-4-(2-(dipropylamino)ethoxy)benzamide]

PARP1 trapped on DNA lesions (0.5 μM and 2 μM): trapped
PARP1-trapping potency relative to JC099 (PARP1 in the chromatin-bound fraction): higher potency in PARP1-trapping
Molecule: CC(C)N(CCOc1ccc(C(=O)NC2C/C(=C\c3ccc(F)c(F)c3)C(=O)/C(=C/c3ccc(F)c(F)c3)C2)cc1)C(C)C (stereo not drawn) [JCS013, N-(3,5-Bis((E)-3,4-difluorobenzylidene)-4-oxocyclohexyl)-4-(2-(diisopropylamino)ethoxy)benzamide]

PARP1 trapped on DNA lesions (0.5 μM): trapped
Molecule: O=C1/C(=C/c2ccc(F)c(F)c2)CC(NC(=O)c2ccc(OCCN3CCCCC3)cc2)C/C1=C\c1ccc(F)c(F)c1 (stereo not drawn) [JCS16]

PARP1 trapped on DNA lesions (0.5 μM and 2 μM): trapped
PARP1 trapped on DNA lesions (0.5 μM): trapped
Molecule: CCCCCN(CCCCC)CCOc1ccc(C(=O)NC2C/C(=C\c3ccc(F)c(F)c3)C(=O)/C(=C/c3ccc(F)c(F)c3)C2)cc1 (stereo not drawn) [JCS023, N-(3,5-Bis((E)-3,4-difluorobenzylidene)-4-oxocyclohexyl)-4-(2-(dipentylamino)ethoxy)benzamide]

PARP1 trapped on DNA lesions (0.5 μM and 2 μM): trapped
PARP1 trapped on DNA lesions (0.5 μM): trapped
Molecule: O=C1/C(=C/c2ccc(F)c(F)c2)CC(NC(=O)c2ccc(NCCN3CCCCC3)cc2)C/C1=C\c1ccc(F)c(F)c1 (stereo not drawn) [JCS028, N-(3,5-Bis((E)-3,4-difluorobenzylidene)-4-oxocyclohexyl)-4-((2-(piperidin-1-yl)ethyl)amino)-benzamide]

PARP1 trapped on DNA lesions (0.5 μM): trapped
Molecule: COCCCNCCOc1ccc(C(=O)NC2C/C(=C\c3ccc(F)c(F)c3)C(=O)/C(=C/c3ccc(F)c(F)c3)C2)cc1 (stereo not drawn) [JCS030, N-(3,5-Bis((E)-3,4-difluorobenzylidene)-4-oxocyclohexyl)-4-(2-((3-methoxypropyl)amino)ethoxy)-benzamide]

PARP1 trapped on DNA lesions (0.5 μM): trapped
Molecule: COCCNCCOc1ccc(C(=O)NC2C/C(=C\c3ccc(F)c(F)c3)C(=O)/C(=C/c3ccc(F)c(F)c3)C2)cc1 (stereo not drawn) [JCS031, N-(3,5-Bis((E)-3,4-difluorobenzylidene)-4-oxocyclohexyl)-4-(2-((2-methoxyethyl)amino)ethoxy)-benzamide]

PARP1 trapped on DNA lesions (0.5 μM): trapped
PARP1-trapping potency relative to JC099 (PARP1 in the chromatin-bound fraction): higher potency in PARP1-trapping
Molecule: CCCCNCCOc1ccc(C(=O)NC2C/C(=C\c3ccc(F)c(F)c3)C(=O)/C(=C/c3ccc(F)c(F)c3)C2)cc1 (stereo not drawn) [JCS034, N-(3,5-Bis((E)-3,4-difluorobenzylidene)-4-oxocyclohexyl)-4-(2-(butylamino)ethoxy)benzamide]

PARP1 trapped on DNA lesions (0.5 μM): trapped
Molecule: NCCOc1ccc(C(=O)NC2C/C(=C\c3ccc(F)c(F)c3)C(=O)/C(=C/c3ccc(F)c(F)c3)C2)cc1 (stereo not drawn) [JCS036]

PARP1 trapped on DNA lesions (0.5 μM): trapped
Molecule: C=CCN(CC=C)CCOc1ccc(C(=O)NC2C/C(=C\c3ccc(F)c(F)c3)C(=O)/C(=C/c3ccc(F)c(F)c3)C2)cc1 (stereo not drawn) [JCS037, N-(3,5-Bis((E)-3,4-difluorobenzylidene)-4-oxocyclohexyl)-4-(2-(diallylamino)ethoxy)benzamide]

PARP1 trapped on DNA lesions (0.3 μM): trapped
Molecule: CN1CCN(CCOc2ccc(C(=O)NC3C/C(=C\c4ccc(F)c(F)c4)C(=O)/C(=C/c4ccc(F)c(F)c4)C3)cc2)CC1 (stereo not drawn) [JCS038, N-(3,5-Bis((E)-3,4-difluorobenzylidene)-4-oxocyclohexyl)-4-(2-(4-methylpiperazin-1-yl)ethoxy)benz-amide]

PARP1 trapped on DNA lesions (0.3 μM): trapped
Molecule: O=C1/C(=C/c2ccc(F)c(F)c2)CC(NC(=O)c2ccc(NCCN3CCOCC3)cc2)C/C1=C\c1ccc(F)c(F)c1 (stereo not drawn) [JCS042, N-(3,5-Bis((E)-3,4-difluorobenzylidene)-4-oxocyclohexyl)-4-((2-morpholinoethyl)amino)benzamide]

PARP1 trapped on DNA lesions (0.3 μM): trapped
Molecule: O=C1/C(=C/c2ccc(F)c(F)c2)CC(NC(=O)c2ccc(NCCCN3CCCC3)cc2)C/C1=C\c1ccc(F)c(F)c1 (stereo not drawn) [JCS044, N-(3,5-Bis((E)-3,4-difluorobenzylidene)-4-oxocyclohexyl)-4-((3-(pyrrolidin-1-yl)propyl)amino)benz-amide]

PARP1 trapped on DNA lesions (0.3 μM): trapped
Molecule: O=C(CN1CCOCC1)Nc1ccc(C(=O)NC2C/C(=C\c3ccc(F)c(F)c3)C(=O)/C(=C/c3ccc(F)c(F)c3)C2)cc1 (stereo not drawn) [JCS047, N-(3,5-bis((E)-3,4-difluorobenzylidene)-4-oxocyclohexyl)-4-(2-morpholinoacetamido)benzamide]

PARP1 trapped on DNA lesions (0.3 μM): trapped
PARP1-trapping potency relative to JC099 (PARP1 in the chromatin-bound fraction): higher potency in PARP1-trapping
Molecule: O=C(CN1CCCC1=O)Nc1ccc(C(=O)NC2C/C(=C\c3ccc(F)c(F)c3)C(=O)/C(=C/c3ccc(F)c(F)c3)C2)cc1 (stereo not drawn) [JCS048, N-(3,5-bis((E)-3,4-difluorobenzylidene)-4-oxocyclohexyl)-4-(2-(2-oxopyrrolidin-1-yl)acetamido)benzamide]

PARP1 trapped on DNA lesions (0.3 μM): trapped
PARP1-trapping potency relative to JC099 (PARP1 in the chromatin-bound fraction): higher potency in PARP1-trapping
Molecule: O=C1/C(=C/c2ccc(F)c(F)c2)CC(NC(=O)c2ccc(NC(=O)N3CCCCC3)cc2)C/C1=C\c1ccc(F)c(F)c1 (stereo not drawn) [JCS053, N-(4-((3,5-bis((E)-3,4-difluorobenzylidene)-4-oxocyclohexyl)carbamoyl)phenyl)piperidine-1-carboxamide]

PARP1 trapped on DNA lesions (0.3 μM): trapped
PARP1-trapping potency relative to JC099 (PARP1 in the chromatin-bound fraction): higher potency in PARP1-trapping
Molecule: O=C1/C(=C/c2ccc(F)c(F)c2)CC(NC(=O)c2ccc(NC(=O)N3CCCC3)cc2)C/C1=C\c1ccc(F)c(F)c1 (stereo not drawn) [JCS054, N-(4-((3,5-bis((E)-3,4-difluorobenzylidene)-4-oxocyclohexyl)carbamoyl)phenyl)pyrrolidine-1-carboxamide]

PARP1 trapped on DNA lesions (0.3 μM): trapped
Molecule: O=C1/C(=C/c2ccc(F)c(F)c2)CC(NC(=O)c2ccc(NC(=O)N3CCN(C(=O)C4CC4)CC3)cc2)C/C1=C\c1ccc(F)c(F)c1 (stereo not drawn) [JCS057, N-(4-((3,5-bis((E)-3,4-difluorobenzylidene)-4-oxocyclohexyl)carbamoyl)phenyl)-4-(cyclopropanecarbonyl)piperazine-1-carboxamide]

PARP1-trapping potency relative to JC099 (PARP1 in the chromatin-bound fraction): higher potency in PARP1-trapping
Molecule: CCCN(CCC)CCNc1ccc(C(=O)NC2C/C(=C\c3ccc(F)c(F)c3)C(=O)/C(=C/c3ccc(F)c(F)c3)C2)cc1 (stereo not drawn) [JCS065, N-(3,5-Bis((E)-3,4-difluorobenzylidene)-4-oxocyclohexyl)-4-((2-(dipropylamino)ethyl)amino)benz-amide]

PARP1-trapping potency relative to JC099 (PARP1 in the chromatin-bound fraction): higher potency in PARP1-trapping
Molecule: CCN(CC)CCNc1ccc(C(=O)NC2C/C(=C\c3ccc(F)c(F)c3)C(=O)/C(=C/c3ccc(F)c(F)c3)C2)cc1 (stereo not drawn) [JCS070, N-(3,5-Bis((E)-3,4-difluorobenzylidene)-4-oxocyclohexyl)-4-((2-(diethylamino)ethyl)amino)benz-amide]

Molecule: CCN(CC)CCOc1ccc(C(=O)NC2CC(Cc3ccc(F)c(F)c3)C(=O)C(Cc3ccc(F)c(F)c3)C2)cc1 (stereo not drawn) [JCS074, N-(3,5-bis(3,4-difluorobenzyl)-4-oxocyclohexyl)-4-(2-(diethylamino)ethoxy)benzamide]
PARP1-trapping potency relative to JC099 (PARP1 in the chromatin-bound fraction): increased the accumulation of PARP1 in the chromatin-bound fraction than JC099

Molecule: O=C1/C(=C/c2ccc(F)c(F)c2)CC(NC(=O)c2ccc(OCCN3CCC(C(F)(F)F)CC3)cc2)C/C1=C\c1ccc(F)c(F)c1 (stereo not drawn) [JCS077, N-(3,5-bis((E)-3,4-difluorobenzylidene)-4-oxocyclohexyl)-4-(2-(4-(trifluoromethyl)piperidin-1-yl)ethoxy)benzamide]
PARP1-trapping potency relative to JC099 (PARP1 in the chromatin-bound fraction): increased the accumulation of PARP1 in the chromatin-bound fraction than JC099

Molecule: CCc1ccc2c(c1)CCC1(CCN(CCOc3ccc(C(=O)NC4C/C(=C\c5ccc(F)c(F)c5)C(=O)/C(=C/c5ccc(F)c(F)c5)C4)cc3)CC1)O2 (stereo not drawn) [JCS078, N-(3,5-bis((E)-3,4-difluorobenzylidene)-4-oxocyclohexyl)-4-(2-(6-ethylspiro[chromane-2,4′-piperidin]-1′-yl)ethoxy)benzamide]
PARP1-trapping potency relative to JC099 (PARP1 in the chromatin-bound fraction): increased the accumulation of PARP1 in the chromatin-bound fraction than JC099

PARP1-trapping potency relative to JC099 (PARP1 in the chromatin-bound fraction): higher potency in PARP1-trapping
Molecule: Cc1nn(C)c2ncc(C(=O)NC3C/C(=C\c4ccc(F)c(F)c4)C(=O)/C(=C/c4ccc(F)c(F)c4)C3)c(Cl)c12 (stereo not drawn) [JCS085]

PARP1-trapping potency relative to JC099 (PARP1 in the chromatin-bound fraction): higher potency in PARP1-trapping
Molecule: O=C1/C(=C/c2ccc(F)c(F)c2)CC(NC(=O)c2ccc(NCCN3CCN(Cc4ccccc4)CC3)cc2)C/C1=C\c1ccc(F)c(F)c1 (stereo not drawn) [JCS087, 4-((2-(4-benzylpiperazin-1-yl)ethyl)amino)-N-(3,5-bis((E)-3,4-difluorobenzylidene)-4-oxocyclohexyl)benzamide]

PARP1-trapping potency relative to JC099 (PARP1 in the chromatin-bound fraction): higher potency in PARP1-trapping
Molecule: CCN(CC)CCOc1cccc(C(=O)NC2C/C(=C\c3ccc(F)c(F)c3)C(=O)/C(=C/c3ccc(F)c(F)c3)C2)c1 (stereo not drawn) [JCS099, N-(3,5-Bis((E)-3,4-difluorobenzylidene)-4-oxocyclohexyl)-3-(2-(diethylamino)ethoxy)benzamide]
